Experimental data reported in patent US8357694B2, “Substituted 5,6-dihydro-6-phenylbenzo[F]isoquinolin-2-amine compounds” (ArQule, Inc., priority 2008, dated 2013).

What was measured:
Format in all cases: cell-based
[1] = system: MDA-MB-231; test: MTS cell kill, MDA-MB-231
Protocol: (§1) Cells were maintained at 37° C., 5% CO2 in DMEM media supplemented with 1% fetal bovine serum, penicillin/streptomycin and fungizone (Invitrogen). Cells were seeded into 96-well tissue culture plates at 3000 per well and cultured at 37° C. for 18 hours. Test compounds were dissolved and diluted to 300× in DMSO then diluted 1:40 in DMEM.

[2] = system: PACA-2; test: MTS cell kill, PACA-2
Protocol: as §1

[3] = system: NCI-H1299; test: MTS cell kill, NCI-H1299
Protocol: as §1

[4] = system: DLD-1; test: MTS cell kill, DLD-1
Protocol: as §1

[5] = system: KATO III; test: MTS assay, KATO III
Protocol: as §1
Further: test concentration or dose not given here.

Structure (SMILES)	MTS cell kill data (% inhibition) MDA-MB-231 [1]	MTS cell kill data (% inhibition) PACA-2 [2]	MTS cell kill data (% inhibition) NCI-H1299 [3]	MTS cell kill data (% inhibition) DLD-1 [4]	MTS cell kill data (% inhibition) KATO III [5]
CNc1ncc2c(n1)-c1ccccc1C1(CCN(C(=O)Nc3ccc(C#N)cc3)CC1)C2 [Example 397, N-(4-cyanophenyl)-2-(methylamino)-1′H,5H-spiro[benzo[h]quinazoline-6,4′-piperidine]-1′-carboxamide]	B (B = 50-79% inhibition)	A (A = 80-100% inhibition)	C (C = <50% inhibition)	B (B = 50-79% inhibition)	A (A = 80-100% inhibition)
CNc1ncc2c(n1)-c1ccccc1C1(CCN(C(=O)Nc3ccc(Oc4ccccc4)cc3)CC1)C2 [Example 406, 2-(methylamino)-N-(4-phenoxyphenyl)-1′H,5H-spiro[benzo[h]quinazoline-6,4′-piperidine]-1′-carboxamide]	A (A = 80-100% inhibition)	A (A = 80-100% inhibition)	A (A = 80-100% inhibition)	A (A = 80-100% inhibition)	A (A = 80-100% inhibition)
CNc1ncc2c(n1)-c1ccccc1C1(CCN(C(=O)Nc3cccc(Cl)c3)CC1)C2 [Example 408, N-(3-chlorophenyl)-2-(methylamino)-1′H,5H-spiro[benzo[h]quinazoline-6,4′-piperidine]-1′-carboxamide]	C (C = <50% inhibition)	A (A = 80-100% inhibition)	C (C = <50% inhibition)	A (A = 80-100% inhibition)	A (A = 80-100% inhibition)
N#Cc1cccc(NC(=O)N2CCC3(CC2)Cc2cnc(Nc4ccc(N5CCNCC5)cc4)nc2-c2ccccc23)c1 [Example 412, N-(3-cyanophenyl)-2-[(4-piperazin-1-ylphenyl)amino]-1′H,5H-spiro[benzo[h]quinazoline-6,4′-piperidine]-1′-carboxamide]	A (A = 80-100% inhibition)	A (A = 80-100% inhibition)	A (A = 80-100% inhibition)	A (A = 80-100% inhibition)	A (A = 80-100% inhibition)
N#Cc1cccc(NC(=O)N2CCC3(CC2)Cc2cnc(Nc4ccc(CCO)cc4)nc2-c2ccccc23)c1 [Example 413, N-(3-cyanophenyl)-2-{[4-(2-hydroxyethyl)phenyl]amino}-1′H,5H-spiro[benzo[h]quinazoline-6,4′-piperidine]-1′-carboxamide]	A (A = 80-100% inhibition)	A (A = 80-100% inhibition)	B (B = 50-79% inhibition)	A (A = 80-100% inhibition)	A (A = 80-100% inhibition)
N#Cc1cccc(NC(=O)N2CCC3(CC2)Cc2cnc(Nc4ccc(CO)cc4)nc2-c2ccccc23)c1 [Example 414, N-(3-cyanophenyl)-2-{[4-(hydroxymethyl)phenyl]amino}-1′H,5H-spiro[benzo[h]quinazoline-6,4′-piperidine]-1′-carboxamide]	B (B = 50-79% inhibition)	A (A = 80-100% inhibition)	B (B = 50-79% inhibition)	B (B = 50-79% inhibition)	A (A = 80-100% inhibition)
CCCc1ccc(CNc2ccc(C3Cc4cnc(NCCCN5CCN(C)CC5)nc4-c4ccccc43)cc2)cc1 (centres unmarked) [Example 569, N-[3-(4-methylpiperazin-1-yl)propyl]-6-{4-[(4-propylbenzyl)amino]phenyl}-5,6-dihydrobenzo[h]quinazolin-2-amine]	A (A = 80-100% inhibition)	A (A = 80-100% inhibition)	A (A = 80-100% inhibition)	A (A = 80-100% inhibition)	A (A = 80-100% inhibition)
